The test relates to Matricaria recutita, Diplotaxis tenuifolia, Agrostis spp., Poa annua, or Arabidopsis thaliana. The experiment in a line: Plant phenotyping assay (herbicidal phenotypes, 96-well plates). Further: key: '+++' is highly active; '++' is moderately active; '+' is weakly active; '−' is inactive. The following applies: visual score of herbicidal phenotypes after seven days; 238, 475, 950, and 1900 g ai/ha (50-400 uM). The class given is in vivo. The method, then:
Seeds of Matricaria recutita, Diplotaxis tenuifolia, Agrostis spp., Poa annua, or Arabidopsis thaliana were sown into 96-well plates containing 200 μl of growth media [0.5× Murashige and Skoog (MS) basal media (Sigma-Aldrich), 2.5 mM 2-(N-morpholino) ethanesulfonic acid (MES—Sigma-Aldrich), 0.7 g/L Phytagar (Invitrogen); pH 5.7]. Three to five seeds were distributed per well. Plates were placed under fifteen hours of light at 23° C., 65% humidity in a controlled environment growth chamber. After approximately three days, test compounds and controls were mixed with acetone and emulsified with an equal volume of 3% methyl ester of rapeseed oil (Mero), and applied to plants at concentrations of 238, 475, 950, and 1900 g ai/ha (50-400 uM).

We go through 19 molecules from US20240365736A1, “COMPOSITIONS AND METHODS FOR TARGETED DEGRADATION OF PROTEINS IN A PLANT CELL” (Oerth Bio LLC, priority 2021, published 2024).

The structures appear in SMILES notation.

Turning to `O=C(COc1ccc(Oc2cncc(C(F)(F)F)c2)cc1)NCCCOCCOCCOc1ccc2c(c1)C(=O)N(C1CCC(=O)NC1=O)C2=O` (stereo not shown) [Compound 7-A, N-(3-(2-(2-((2-(2,6-Cioxopiperidin-3-yl)-1,3-dioxoisoindolin-5-yl)oxy)ethoxy)ethoxy)propyl)-2-(4-((5-(trifluoromethyl)pyridin-3-yl)oxy)phenoxy)acetamide], the “Plant Activity” value is “−”.

Consider `CCO/N=C(\CC)C1=C(O)CC(c2ccc(OCCOCCOCCOc3ccc4c(c3)C(=O)N(C3CCC(=O)NC3=O)C4=O)cc2)CC1=O` (stereo not shown) [Compound 5, 2-(2,6-dioxo-3-piperidyl)-5-[2-[2-[2-[4-[4-[(E)-N-ethoxy-C-ethyl-carbonimidoyl]-3-hydroxy-5-oxo-cyclohex-3-en-1-yl]phenoxy]ethoxy]ethoxy]ethoxy]isoindoline-1,3-dione], for which the “Plant Activity” value was “+”.

Regarding `COc1cnc(OC)n2nc(NS(=O)(=O)c3c(OCCOc4ccc5c(c4)C(=O)N(C4CCC(=O)NC4=O)C5=O)cccc3C(F)(F)F)nc12` (stereo not shown) [Compound 4, N-(5,8-dimethoxy-[1,2,4]triazolo[1,5-c]pyrimidin-2-yl)-2-[2-[2-(2,6-dioxo-3-piperidyl)-1,3-dioxo-isoindolin-5-yl]oxyethoxy]-6-(trifluoromethyl)benzenesulfonamide], the “Plant Activity” value is given as “+”.

As to `COc1cnc(OC)n2nc(NS(=O)(=O)c3c(OCCOCCOCCOCCOCCNc4cccc5c4C(=O)N(C4CCC(=O)NC4=O)C5=O)cccc3C(F)(F)F)nc12` (stereo not shown) [Compound 4-F, N-(5,8-Dimethoxy-[1,2,4]triazolo[1,5-c]pyrimidin-2-yl)-2-((14-((2-(2,6-dioxopiperidin-3-yl)-1,3-dioxoisoindolin-4-yl)amino)-3,6,9,12-tetraoxatetradecyl)oxy)-6-(trifluoromethyl)benzenesulfonamide], the “Plant Activity” value is recorded as “+++”.

With `O=C(COc1cccc2c1C(=O)N(C1CCC(=O)NC1=O)C2=O)NCCOCCOc1cccc(C(=O)C2C(=O)CCCC2=O)c1Cl` (stereo not shown) [Compound 1-A, N-(2-(2-(2-Chloro-3-(2,6-dioxocyclohexane-1-carbonyl)phenoxy)ethoxy)ethyl)-2-((2-(2,6-dioxopiperidin-3-yl)-1,3-dioxoisoindolin-4-yl)oxy)acetamide], the “Plant Activity” value is “+”.

Consider `CC(Oc1ccc(Oc2nc3ccc(F)cc3s2)cc1)C(=O)Nc1ccc(OCCCOCCOCCOCCOc2ccc3c(c2)C(=O)N(C2CCC(=O)NC2=O)C3=O)cc1F` (stereo not shown) [Compound 8-C, N-(4-(3-(2-(2-(2-((2-(2,6-Dioxopiperidin-3-yl)-1,3-dioxoisoindolin-5-yl)oxy)ethoxy)ethoxy)-ethoxy)propoxy)-2-fluorophenyl)-2-(4-((6-fluorobenzo[d]thiazol-2-yl)oxy)phenoxy)propanamide], for which the “Plant Activity” value is reported as “+”.

Turning to `COc1cnc(OC)n2nc(NS(=O)(=O)c3c(OC4CCN(CCOCCOCCOCCN5CCN(c6ccc7c(c6)C(=O)N(C6CCC(=O)NC6=O)C7=O)CC5)CC4)cccc3C(F)(F)F)nc12` (stereo not shown) [Compound 4-O, N-(5,8-Dimethoxy-[1,2,4]triazolo[1,5-c]pyrimidin-2-yl)-2-((1-(2-(2-(2-(2-(4-(2-(2,6-dioxopiperidin-3-yl)-1,3-dioxoisoindolin-5-yl)piperazin-1-yl)ethoxy)ethoxy)ethoxy)ethyl)piperidin-4-yl)oxy)-6-(trifluoromethyl)benzenesulfonamide], the “Plant Activity” value was “−”.

`O=C(COc1ccc(Oc2nc3ccc(F)cc3s2)cc1)NCCCOCCOCCOCCOCCOc1ccc2c(c1)C(=O)N(C1CCC(=O)NC1=O)C2=O` (stereo not shown) [Compound 8, N-[3-[2-[2-[2-[2-[2-(2,6-dioxo-3-piperidyl)-1,3-dioxo-isoindolin-5-yl]oxyethoxy]-ethoxy]ethoxy]ethoxy]propyl]-2-[4-[(6-fluoro-1,3-benzothiazol-2-yl)oxy]phenoxy]acetamide]: the “Plant Activity” value is reported as “+”.

`CS(=O)(=O)c1ccc(C(=O)C2C(=O)CCCC2=O)c(Cl)c1OCCOCCOCCOc1ccc2c(c1)C(=O)N(C1CCC(=O)NC1=O)C2=O` (stereo not shown) [Compound 3, 5-[2-[2-[2-[2-chloro-3-(2,6-dioxocyclohexanecarbonyl)-6-methylsulfonyl-phenoxy]ethoxy]ethoxy]ethoxy]-2-(2,6-dioxo-3-piperidyl)isoindoline-1,3-dione]: the “Plant Activity” value is on record as “++”.

As to `O=C1CCC(N2C(=O)c3ccc(N4CCN(CCOCCOCCOc5cccc(C(=O)C6C(=O)CCCC6=O)c5Cl)CC4)cc3C2=O)C(=O)N1` (stereo not shown) [Compound 2, 5-[4-[2-[2-[2-[2-chloro-3-(2,6-dioxocyclohexane-carbonyl)phenoxy]ethoxy]-ethoxy]ethyl]piperazin-1-yl]-2-(2,6-dioxo-3-piperidyl)isoindoline-1,3-dione], the “Plant Activity” value is “+”.

In the case of `CCOC(=O)[C@@H](C)Oc1ccc(Oc2ccc(OCCOCCN3CCC(CCCN4CCN(c5ccc6c(c5)C(=O)N(C5CCC(=O)NC5=O)C6=O)CC4)CC3)cn2)cc1` (stereo partly drawn) [Compound 6-B, Ethyl (2R)-2-[4-[[5-[2-[2-[4-[3-[4-[2-(2,6-dioxo-3-piperidyl)-1,3-dioxo-isoindolin-5-yl]piperazin-1-yl]propyl]-1-piperidyl]ethoxy]ethoxy]-2-pyridyl]oxy]phenoxy]propanoate], the “Plant Activity” value is “+”.

For the molecule `COc1cnc(OC)n2nc(NS(=O)(=O)c3c(OCCOCCN4CC(OCCCN5CCN(c6ccc7c(c6)C(=O)N(C6CCC(=O)NC6=O)C7=O)CC5)C(F)(F)C4)cccc3C(F)(F)F)nc12` (stereo not shown) [Compound 4-S, N-(5,8-Dimethoxy-[1,2,4]triazolo[1,5-c]pyrimidin-2-yl)-2-(2-(2-(4-(3-(4-(2-(2,6-dioxopiperidin-3-yl)-1,3-dioxoisoindolin-5-yl)piperazin-1-yl)propoxy)-3,3-difluoropyrrolidin-1-yl)ethoxy)ethoxy)-6-(trifluoromethyl)benzenesulfonamide], the “Plant Activity” value is given as “++”.

In the case of `COc1cnc(OC)n2nc(NS(=O)(=O)c3c(OCCOCCN4CCN(c5ccc6c(c5)C(=O)N(C5CCC(=O)NC5=O)C6=O)CC4)cccc3C(F)(F)F)nc12` (stereo not shown) [Compound 4-P, N-(5,8-dimethoxy-[1,2,4]triazolo[1,5-c]pyrimidin-2-yl)-2-(2-(2-(4-(2-(2,6-dioxopiperidin-3-yl)-1,3-dioxoisoindolin-5-yl)piperazin-1-yl)ethoxy)ethoxy)-6-(trifluoromethyl)benzenesulfonamide], the “Plant Activity” value is listed as “+”.

As for `COc1cnc(OC)n2nc(NS(=O)(=O)c3c(OCCOCCOCCOc4ccc5c(c4)C(=O)N(C4CCC(=O)NC4=O)C5=O)cccc3C(F)(F)F)nc12` (stereo not shown) [Compound 4-C, N-(5,8-Dimethoxy-[1,2,4]triazolo[1,5-c]pyrimidin-2-yl)-2-(2-(2-(2-((2-(2,6-dioxopiperidin-3-yl)-1,3-dioxoisoindolin-5-yl)oxy)ethoxy)ethoxy)ethoxy)-6-(trifluoromethyl)benzenesulfonamide], the “Plant Activity” value is reported as “+++”.

Regarding `O=C(COc1ccc(Oc2cncc(C(F)(F)F)c2)cc1)NCCCOCCOCCOCCOCCOc1ccc2c(c1)C(=O)N(C1CCC(=O)NC1=O)C2=O` (stereo not shown) [Compound 7, N-[3-[2-[2-[2-[2-[2-(2,6-dioxo-3-piperidyl)-1,3-dioxo-isoindolin-5-yl]oxyethoxy]-ethoxy]ethoxy]ethoxy]propyl]-2-[4-[[5-(trifluoromethyl)-3-pyridyl]oxy]phenoxy]acetamide], the “Plant Activity” value is “+”.

As to `COc1cnc(OC)n2nc(NS(=O)(=O)c3c(OCCOCCOCCOCCOCCCN4CCN(c5ccc6c(c5)C(=O)N(C5CCC(=O)NC5=O)C6=O)CC4)cccc3C(F)(F)F)nc12` (stereo not shown) [Compound 4-R, N-(5,8-Dimethoxy-[1,2,4]triazolo[1,5-c]pyrimidin-2-yl)-2-((15-(4-(2-(2,6-dioxopiperidin-3-yl)-1,3-dioxoisoindolin-5-yl)piperazin-1-yl)-3,6,9,12-tetraoxapentadecyl)oxy)-6-(trifluoromethyl)benzenesulfonamide], the “Plant Activity” value was “−”.

For the molecule `O=C(COc1ccc(Oc2cncc(C(F)(F)F)c2)cc1)NCCCOCCOCCOCCOc1ccc2c(c1)C(=O)N(C1CCC(=O)NC1=O)C2=O` (stereo not shown) [Compound 7-B, N-(3-(2-(2-(2-((2-(2,6-dioxopiperidin-3-yl)-1,3-dioxoisoindolin-5-yl)oxy)ethoxy)ethoxy)ethoxy)propyl)-2-(4-((5-(trifluoromethyl)pyridin-3-yl)oxy)phenoxy)acetamide], the “Plant Activity” value was “+”.

As to `COc1cnc(OC)n2nc(NS(=O)(=O)c3c(OCCCC4CCN(CCOCCOCCOc5ccc6c(c5)C(=O)N(C5CCC(=O)NC5=O)C6=O)CC4)cccc3C(F)(F)F)nc12` (stereo not shown) [Compound 4-N, N-(5,8-Dimethoxy-[1,2,4]triazolo[1,5-c]pyrimidin-2-yl)-2-(3-(1-(2-(2-(2-((2-(2,6-dioxopiperidin-3-yl)-1,3-dioxoisoindolin-5-yl)oxy)ethoxy)ethoxy)ethyl)piperidin-4-yl)propoxy)-6-(trifluoromethyl)benzenesulfonamide], the “Plant Activity” value is given as “−”.

In the case of `COc1cnc(OC)n2nc(NS(=O)(=O)c3c(OCCOCCOCCOCCOCCOc4ccc5c(c4)C(=O)N(C4CCC(=O)NC4=O)C5=O)cccc3C(F)(F)F)nc12` (stereo not shown) [Compound 4-A, N-(5,8-Dimethoxy-[1,2,4]triazolo[1,5-c]pyrimidin-2-yl)-2-((14-((2-(2,6-dioxopiperidin-3-yl)-1,3-dioxoisoindolin-5-yl)oxy)-3,6,9,12-tetraoxatetradecyl)oxy)-6-(trifluoromethyl)benzenesulfonamide], the “Plant Activity” value was “+++”.
